# Assays:
# [1] = tested on: spleen of psoriasis mouse model; test: Spleen hypertrophy in IMQ psoriasis model; assay type: in vivo, C57BL/6 mouse; details: Day 6, vs Vehicle
# Description: (§1) Psoriasis caused by excessive production of skin cells was a chronic skin disease associated with various factors, including autoimmune diseases, and its symptoms included red and thickened skin and abnormally occurring scaling. […] Specifically, the back region of a C57BL/6 mouse (male, 18 to 20 g, 8 weeks) (Daehan Biolink, Eumseong, Korea) was shaved to remove hair, and then applied with IMQ cream (83 mg/day) (5%) for consecutive 5 days from Day 0 to Day 4 to induce psoriasis-like skin inflammation, and a normal control mouse (Sham) was applied with Vaseline cream (FIG. 16A).
# (§2) In order to confirm the effect of YJ102 (Chemical Formula 1), a compound of the present disclosure, on psoriasis, YJ102 dissolved in DMSO, methyl pyrrolidinone, and water (1:1.5:1) was administered intraperitoneally (5 mg/kg) for a total of 3 days on Day 2, Day 3, and Day 4, and the Vehicle group was administered in the same amount of a solution of DMSO, methyl pyrrolidinone, and water (1:1.5:1) (FIG. 16A). To assess daily skin changes, PASI scores were used for erythema and scaling. The PASI score was evaluated as a severity scale of 0 to 4, in which 0 meant none, 1 meant mild, 2 meant moderate, 3 meant severe, and 4 meant very severe. (PASI Reference: Yashpal Manchanda, Abhishek De, Sudip Das, and Disha Chakraborty. Disease Assessment in Psoriasis. Indian J Dermatol. 2023 May-June; 68 (3): 278-281.) […]
# [2] = tested on: skin tissue of psoriasis mouse model; test: Epidermal layer thickness and dermal cell introduction (H&E) in IMQ psoriasis model; assay type: in vivo, C57BL/6 mouse; details: 5 mg/kg i.p. Days 2-4, Day 6
# Description: as §1
# as §2, with “severe.” for “severe. (PASI Reference: Yashpal Manchanda, Abhishek De, Sudip Das, and Disha Chakraborty. Disease Assessment in Psoriasis. Indian J Dermatol. 2023 May-June; 68 (3): 278-281.)”
# On day 6, the skin tissue of the psoriasis mouse model was stained with Hematoxyline & Eosin, and the epidermal layer thickness was measured. […]
# microglia (OX-42) = test: Microglial activation in spinal cord of SNI model, OX-42 staining; assay type: in vivo, Sprague-Dawley rats; details: spinal cord L4-L5, 4 weeks after nerve injury
# Description: To be used as a peripheral nerve injury animal model, a sciatic nerve injury (SNI) model was prepared (FIG. 1C). Specifically, 200 to 220 g of male adult Sprague-Dawley rats were anesthetized by intraperitoneal injection of chloral hydrate (500 mg/kg), and then three terminal branches (tibial, common peroneal, and sural nerves) of the right sciatic nerve were approached, and the tibia nerve and the peroneal nerve were tightly ligated with 4-0 silk, and neurectomy was performed at a distal 3 mm position of the ligation site. At this time, a Sham group was a group that exposed only the sciatic nerve without damage.
# To analyze the activation of microglia in the spinal cord, which were known to play an important role in the induction/persistence of neuropathic pain, 4 weeks after nerve injury in the SNI animal model, the spinal cord of 4 and 5 lumbar vertebrae was stained with OX-42 to confirm changes in cell shape and intensity. […] The supernatant was transferred to a new microcentrifuge, the protein concentration was measured using a BCA kit, and samples for Western blot were prepared by adding a 1× sample buffer and boiling for 5 minutes. […]
smiles,measurement,setting,value
CCc1ccc(N(C(=O)COC)c2nc3cc(Cl)ccc3o2)cc1 [YJ102],size of the spleen,[1],significantly reduced
same,weight of the spleen,[1],significantly reduced
same,number of cells introduced into the dermal layer,[2],decreased to the Sham level
same,reduction of epidermal layer thickness compared to Vehicle group,[2],approximately 35%
same,microglia activation changes (OX-42 intensity),microglia (OX-42),significantly reduced

# From US20260335293A1, “USE OF NOVEL COMPOUND FOR TREATING INTRACTABLE DISEASES” (YJ CERAPEUTICS INC., priority 2023, published 2026)
